Data reported in ChEMBL document CHEMBL1201862, “PubChem BioAssay data set” (2004).
Calls of active or inactive are those of the source.

Tests used:
[1] = target: T1, Kappa-type opioid receptor (Homo sapiens, UniProt P41145); assay: SAR analysis of Antagonists of the Kappa Opioid Receptor (KOR) using an Image-Based Assay - Set 3. [Related pubchem assays (depositor defined):AID1777, AID1785]; assay type: functional
[2] = target: T2, Delta-type opioid receptor (Homo sapiens, UniProt P41143); assay: SAR Analysis of Antagonists of the DOR Receptor using an Image-Based Assay - Set 3. [Related pubchem assays (depositor defined):AID1777, AID1785]; assay type: functional
[3] = target: T1, Kappa-type opioid receptor; assay: SAR analysis of small molecule antagonists of the kappa opioid receptor via a luminescent beta-arrestin assay - Set 3. [Related pubchem assays (depositor defined):AID1777, AID1778, AID1785, AID1786, AID1966, AID2133, AID2136, AID2285, AID2495]; assay type: functional
Mu-type opioid receptor [4] = target: T3, Mu-type opioid receptor (Homo sapiens, UniProt P35372); assay: SAR Analysis of Antagonists of the MOR Receptor using an Image-Based Assay - Set 3. [Related pubchem assays (depositor defined):AID1777, AID1785, AID1786, AID1966, AID2133, AID2136, AID2284, AID2285, AID2420]; assay type: functional
[5] = target: T4, Runt-related transcription factor 1/Core-binding factor subunit beta (Homo sapiens, UniProt Q01196+Q13951); assay: inhibitors of RUNX1 Runt–CBFb-SMMHC binding, biochemical, TR-FRET (AID 1438); assay type: protein assay
[6] = target: T5, Voltage-gated N-type calcium channel alpha-1B subunit/Amyloid beta A4 precursor protein-binding family A member 1 (Homo sapiens, UniProt Q00975+Q02410); assay: disruptors of Mint-PDZ/N-type channel peptide interaction – biochemical, HTRF, SAR follow-up (AID 2489); assay type: functional
[7] = target: T5, Voltage-gated N-type calcium channel alpha-1B subunit/Amyloid beta A4 precursor protein-binding family A member 1; assay: disruptors of Mint-PDZ/N-type channel peptide interaction – biochemical, HTRF, set 2, SAR follow-up (AID 434980); assay type: functional
Prothrombin = Prothrombin (Bos taurus, UniProt P00735); assay: thrombin inhibition, dose response, biochemical, fluorescence polarization, uHTS hits (AID 602369); assay type: functional
[8] = target: T6, Probable nicotinate-nucleotide adenylyltransferase (Staphylococcus aureus (strain N315), UniProt P65502); assay type: functional, Staphylococcus aureus subsp. aureus N315;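 on IC50 Mean: confirmatory dose-response retesting of NadD inhibitor hits first found in an ultra-high-throughput screen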
[9] = target: Induced myeloid leukemia cell differentiation protein Mcl-1 (Homo sapiens, UniProt Q07820); assay type: functional
[10] = target: T4, Runt-related transcription factor 1/Core-binding factor subunit beta; assay: inhibitors of RUNX1 Runt–CBFb-SMMHC binding, primary screen, biochemical, FRET, Cerulean-Runt, Venus-CBFb-SMMHC, uHTS (AID 1434); assay type: protein assay;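 further: partner is the CBFb-SMMHC leukemia fusion protein rather than wild-type CBFb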
[11] = target: 26S proteasome non-ATPase regulatory subunit 14 (Homo sapiens, UniProt O00487); assay: inhibition of proteasome subunit RPN11 – biochemical, fluorescence polarization, uHTS hits, confirmation (AID 602368); assay type: functional
[12] = target: T5, Voltage-gated N-type calcium channel alpha-1B subunit/Amyloid beta A4 precursor protein-binding family A member 1; assay type: protein assay
[13] = target: T6, Probable nicotinate-nucleotide adenylyltransferase; assay type: functional, Staphylococcus aureus subsp. aureus N315; details: read-out: IC50_Mean
[14] = target: 72 kDa type IV collagenase (Homo sapiens, UniProt P08253); assay: Dose Response validation of uHTS RPN11 inhibitor hits using a MMP-2 Fluorescence assay.; assay type: functional
[15] = target: T5, Voltage-gated N-type calcium channel alpha-1B subunit/Amyloid beta A4 precursor protein-binding family A member 1; assay type: protein assay; remark: listed apart in the source
[16] = target: T1, Kappa-type opioid receptor; assay: SAR analysis of small molecule agonists of the kappa opioid receptor via a luminescent beta-arrestin assay. [Related pubchem assays (depositor defined):AID1777, AID1786, AID1966, AID2133, AID2136, AID2348, AID2352, AID2357, AID2359, AID2370, AID2420, AID2478, AID2491, AID2492, AID2493, AID2497, AID2498, AID2500, AID449737, AID488822, AID488842]; assay type: functional
[17] = target: T2, Delta-type opioid receptor; assay: DOR agonists, SAR follow-up, image-based (AID 2370); assay type: functional
[18] = target: T1, Kappa-type opioid receptor; assay: KOR agonist analogs, imaging readout, SAR follow-up, image-based (AID 2359); assay type: functional
[19] = target: T1, Kappa-type opioid receptor; assay: KOR antagonists by imaging, SAR follow-up, image-based (AID 2348); assay type: functional
Mu-type opioid receptor [20] = target: T3, Mu-type opioid receptor; assay: HTS Image-Based Screen for Agonists of the MOR Receptor. [Related pubchem assays (depositor defined):AID1777, AID1785, AID1786, AID2133]; assay type: functional
Mu-type opioid receptor [21] = target: T3, Mu-type opioid receptor; assay: MOR agonists by imaging, SAR follow-up, image-based (AID 2352); assay type: functional
[22] = target: T1, Kappa-type opioid receptor; assay type: functional
Mu-type opioid receptor [23] = target: T3, Mu-type opioid receptor; assay: MOR antagonists, SAR follow-up, image-based (AID 2420); assay type: functional;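 further: compounds added before stimulation of receptor with agonist DAMGO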
[24] = target: T2, Delta-type opioid receptor; assay: HTS Image-Based Screen for Agonists of the DOR Receptor. [Related pubchem assays (depositor defined):AID1777, AID1786, AID2133]; assay type: functional
[25] = target: T2, Delta-type opioid receptor; assay: HTS Image-Based Screen for Antagonists of the DOR Receptor. [Related pubchem assays (depositor defined):AID1777, AID1785, AID1786, AID2133]; assay type: functional
[26] = target: T1, Kappa-type opioid receptor; assay type: functional; remark: listed apart in the source
[27] = target: T2, Delta-type opioid receptor; assay: DOR antagonists, SAR follow-up, image-based (AID 2357); assay type: functional
Hexokinase = Hexokinase (Trypanosoma brucei, UniProt Q38C41); assay: Confirmation assay for inhibitors of Trypanosoma brucei hexokinase 1-Analogue-first series. [Related pubchem assays (depositor defined):AID1430, AID1632, AID2516, AID2560, AID2579, AID2600, AID449725, AID492951]; assay type: functional
[28] = THP-1 cell cytotoxicity, dose response, cytotoxicity control for non-replicating M. tuberculosis project (AID 489025); assay type: functional
[29] = Luminescence Cell-Based Dose Response HTS to Identify Inhibitors of 5'UTR Stem-Loop Driven Prion Protein mRNA Translation in H4 Neuroglioblastoma Cells. [Related pubchem assays: 1827 (Project Summary), 1813 (Primary HTS)]; assay type: functional
[30] = cytotoxicity toward NIH3T3 fibroblasts, dose response, counter-screen, cell-based, ATP luminescence, mouse fibroblasts (AID 2010); assay type: functional;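 further: cells exposed to compound for about 90 hours before reading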
INS1 = assay: beta cell apoptosis inhibitors, cytokine rescue, dose response, luminescence, retest (AID 449756); assay type: functional, cell-based; details: Rattus norvegicus;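 further: cell death triggered by IL-1 beta plus TNF-alpha plus IFN-gamma mixture; protective hits raise ATP signal compared with cytokine alone wells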
[31] = target: T7, Mannose-6-phosphate isomerase (Homo sapiens, UniProt P34949); assay: human PMI inhibitors, high substrate, primary screen, biochemical, fluorescence intensity, high mannose 6-phosphate (AID 1220)
T7 sequence (P34949 whole entry): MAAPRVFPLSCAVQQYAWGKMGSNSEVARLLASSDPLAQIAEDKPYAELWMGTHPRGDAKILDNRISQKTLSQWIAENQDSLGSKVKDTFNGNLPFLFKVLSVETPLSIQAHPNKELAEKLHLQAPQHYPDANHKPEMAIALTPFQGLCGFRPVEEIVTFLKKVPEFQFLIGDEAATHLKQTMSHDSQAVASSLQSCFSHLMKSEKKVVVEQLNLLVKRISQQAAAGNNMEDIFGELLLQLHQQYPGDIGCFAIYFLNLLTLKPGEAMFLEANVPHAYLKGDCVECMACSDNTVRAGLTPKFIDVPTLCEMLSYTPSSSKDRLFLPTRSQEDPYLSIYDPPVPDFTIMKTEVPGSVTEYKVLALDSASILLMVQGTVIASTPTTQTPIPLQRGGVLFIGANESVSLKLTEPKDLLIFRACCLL

[32] = target: T7, Mannose-6-phosphate isomerase; assay: inhibitors of human PMI, primary screen, biochemical, fluorescence intensity, coupled assay (AID 1209)
[33] = HepG2 cell cytotoxicity, dose response, cytotoxicity control for non-replicating M. tuberculosis project (AID 489018); assay type: functional; details: Mycobacterium tuberculosis
[34] = inhibitors of intracellular T. cruzi replication, confirmation, NIH3T3 host cells, beta-gal luminescence (AID 2044); assay type: functional, cell-based;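 further: intracellular parasites grown in NIH/3T3 mouse fibroblasts as host cells; luminescent beta-galactosidase reporter signal from transgenic T. cruzi replicating inside host cells; inhibitors lower the luminescence signal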
[35] = inhibitors of SNCA 5'UTR-driven reporter translation, confirmation, H4 neuroglioma cells, luminescence (AID 1988); assay type: functional, cell-based
[36] = Vero E6 cell cytotoxicity, dose response, cytotoxicity control for non-replicating M. tuberculosis project, secondary assay (AID 492998); assay type: functional, VeroE6; details: Vero C1008
[37] = inhibitors of firefly luciferase expression or activity, dose response, H4 neuroglioma cells, luminescence (AID 1990); assay type: functional, cell-based
Protein Wnt-3a = Protein Wnt-3a (Mus musculus, UniProt P27467); assay: Wnt3a-driven reporter signaling inhibition, dose response, selectivity assay for Gli-SUFU antagonist project, Wnt-LIGHT cells, luminescence (AID 651570); assay type: functional; details: read-out: IC50_Mean;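 further: Wnt-LIGHT reporter cells stimulated with conditioned medium from Wnt3a-producing cells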
[38] = target: Lysine-specific demethylase 4C (Homo sapiens, UniProt Q9H3R0); assay: GASC-1 (JMJD2C) histone demethylase inhibitors, dose response, biochemical, DELFIA europium, cherry-picked samples (AID 488835); assay type: functional
cells = assay type: functional
[39] = A Cell Based Secondary Assay To Explore Cytotoxicity of Compounds that Sensitize Mycobacterium Tuberculosis to Beta-Lactam Antibiotics.; assay type: functional
[40] = target: NACHT, LRR and PYD domains-containing protein 3 (Homo sapiens, UniProt Q96P20); assay: NALP3 inhibitors in yeast, dose response, luminescent (AID 488799); assay type: functional
[41] = target: 1-acylglycerol-3-phosphate O-acyltransferase ABHD5/Perilipin-5 (Homo sapiens, UniProt Q00G26+Q8WTS1); assay: Luminescence-based biochemical high throughput dose response assay for inhibitors of the interaction of the lipase co-activator protein, abhydrolase domain containing 5 (ABHD5) with perilipin-5 (MLDP; PLIN5) (2K validation set). [Related pubchem assays (depositor defined):AID493035, AID493241]
Troponin, cardiac muscle = Troponin, cardiac muscle (Homo sapiens, UniProt P19429+P45379+P63316); assay: Fluorescence-based biochemical high throughput dose response assay for activators of the calcium sensitivity of cardiac Regulated Thin Filaments (RTF). [Related pubchem assays (depositor defined):AID493008, AID493018, AID504382, AID504383]; assay type: protein-complex assay
Perilipin-1/ABHD5 = Perilipin-1/ABHD5 (Homo sapiens, UniProt O60240+Q8WTS1); assay: Luminescence-based biochemical high throughput dose response assay for inhibitors of the interaction of the lipase co-activator protein, abhydrolase domain containing 5 (ABHD5) with perilipin-1 (PLIN1) (2K validation set). [Related pubchem assays (depositor defined):AID493027, AID493057]

Cc1ccc(CN(CCNC(=O)c2ccc(CNS(=O)(=O)c3ccc(C)cc3)cc2)C(C)C)cc1
IC50 [1]: 0.246 µM (active) | IC50 [2]: > 32 µM (inactive) | IC50 [3]: 1.17 µM (active) | IC50 (Mu-type opioid receptor [4]): > 32 µM (inactive)

CN(CCC#N)C(=O)COC(=O)c1c2c(nc3ccccc13)/C(=C/c1ccco1)CC2
IC50 [5]: > 100 µM (inactive) | IC50 [6]: 6.19 µM (active) | IC50 [7]: 2.82 µM (active) | IC50 (Prothrombin): 6.71 µM (active) | IC50 [8]: 7.86 µM (active) | IC50 [9]: 1.44 µM (active) | IC50 [10]: 62.4 µM (inactive) | IC50 [11]: 4.76 µM (active) | IC50 [12]: 6.34 µM (active) | IC50 [13]: 16.9 µM (active) | IC50 [14]: > 100 µM (inactive) | IC50 [15]: 3.22 µM (active)

CCC(C)(C(=O)NC1CCCCC1)N(Cc1ccco1)C(=O)c1cnccn1 (stereo not given)
EC50 [16]: 3.71 µM (active) | EC50 [17]: > 32 µM (inactive) | EC50 [18]: 1.36 µM (active) | IC50 [19]: > 32 µM (inactive) | EC50 (Mu-type opioid receptor [20]): > 32 µM (inactive) | EC50 (Mu-type opioid receptor [21]): > 32 µM (inactive) | EC50 [22]: 2.47 µM | IC50 (Mu-type opioid receptor [23]): > 32 µM (inactive) | EC50 [24]: > 32 µM (inactive) | IC50 [25]: > 32 µM (inactive) | EC50 [26]: 1.75 µM | IC50 [27]: > 32 µM (inactive)

COc1ccc(C(=O)Nc2c(C(=O)O)ccc(Cl)c2Cl)cc1
IC50 (Hexokinase): > 25 µM (inactive)

Cc1cc(N/N=C/c2ccc(O)cc2O)nc(-n2nc(C)cc2C)n1
CC50 [28]: 8.18 µM (active) | EC50 [29]: 11.4 µM (active) | EC50 [30]: > 30 µM (not active) | AC50 (INS1): 0.3 µM (active) | IC50 [31]: > 50 µM (not active) | IC50 [32]: > 50 µM (not active) | CC50 [33]: 11.4 µM (active) | EC50 [34]: 2.05 µM (active) | EC50 [35]: 11.2 µM (active) | CC50 [36]: 3.72 µM (active) | EC50 [37]: 10.9 µM (active) | IC50 (Protein Wnt-3a): 41.3 µM (inactive) | AC50 [38]: 2.7 µM (active) | IC50 (cells): 0.18 µM (active)

O=C(CCS(=O)(=O)c1ccccc1)N(CCCN1CCOCC1)c1nc2c(F)cccc2s1
CC50 [39]: > 40 µM (active) | EC50 [30]: 4.45 µM (active) | EC50 [34]: 3.11 µM (active) | IC50 [40]: 2.07 µM (active)

COc1ccccc1C(=O)Oc1ccc2c(c1)O/C(=C\c1ccncc1)C2=O
IC50 [41]: 8.12 µM (active) | EC50 (Troponin, cardiac muscle): 13.7 µM (inactive) | IC50 (Perilipin-1/ABHD5): 6.72 µM (active)
